Laboratory results reported in publication PMC5291098, “Molecular mutagenesis of ppGpp: turning a RelA activator into an inhibitor” (Scientific Reports, 2017).

Tests used:
E. coli RelA = biological target: T1, E. coli RelA (Escherichia coli, UniProt P0AG20); test: Inhibition of RelA activated by programmed 'starved' ribosomal complexes containing deacylated A-site tRNAPhe; assay type: biochemical; conditions: 30 nM RelA, 0.5 μM 70S, 2 μM tRNAPhe, 2 μM tRNAiMet, 2 μM mRNA(MF), 100 μM ppGpp, 0.3 mM [3H]GDP, 1 mM ATP, 5 mM Mg2+; read-out: IC50, 70S(MF:tPhe)
T1 construct: made in house
T1 sequence (P0AG20 whole entry): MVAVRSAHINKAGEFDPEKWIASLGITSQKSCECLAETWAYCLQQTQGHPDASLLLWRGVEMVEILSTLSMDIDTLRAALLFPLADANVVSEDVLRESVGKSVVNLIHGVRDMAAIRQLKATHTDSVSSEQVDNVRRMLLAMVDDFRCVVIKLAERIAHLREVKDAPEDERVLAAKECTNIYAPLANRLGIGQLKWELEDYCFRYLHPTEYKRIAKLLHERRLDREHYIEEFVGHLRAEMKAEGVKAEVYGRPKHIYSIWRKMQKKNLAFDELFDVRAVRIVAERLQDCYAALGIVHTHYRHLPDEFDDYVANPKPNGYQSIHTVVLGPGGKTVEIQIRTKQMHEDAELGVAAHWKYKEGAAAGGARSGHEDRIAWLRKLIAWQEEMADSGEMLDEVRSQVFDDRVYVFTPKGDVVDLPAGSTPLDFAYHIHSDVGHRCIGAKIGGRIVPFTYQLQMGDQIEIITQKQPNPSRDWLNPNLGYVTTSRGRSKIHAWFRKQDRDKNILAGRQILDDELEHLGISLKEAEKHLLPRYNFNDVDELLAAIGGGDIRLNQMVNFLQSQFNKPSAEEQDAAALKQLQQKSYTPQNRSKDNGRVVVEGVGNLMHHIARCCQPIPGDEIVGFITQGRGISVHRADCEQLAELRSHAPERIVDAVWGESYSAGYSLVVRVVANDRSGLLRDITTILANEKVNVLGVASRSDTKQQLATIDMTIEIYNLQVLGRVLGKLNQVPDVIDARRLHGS
Experimental: Screening was performed in a cost-efficient way using RelA activated by the presence of vacant 70S ribosomes and 100 μM ppGpp. However, to become fully active, RelA requires the presence of ‘starved’ ribosomal complexes containing deacylated A-site tRNA[17]. We therefore prepared ‘starved’ complexes using model mRNA coding for fMetPhe (MF) dipeptide and purified deacylated tRNAs tRNA^Phe and tRNA^fMeti[42] to test the efficiency of DR-4250 and DR-M014 in this more physiologically relevant system (Fig. 4a,b).
Figure 4 Functional studies of DR-M014 and DR-4250 with programmed ribosomal complexes. (a,b) Inhibition of RelA activated by starved ribosomal complexes containing deacylated A-site tRNA^Phe. […]
Both EF-G GTPase reaction and ppGpp synthesis by RelA were followed by TLC analysis followed by scintillation counting according to Mechold and colleagues, with modifications1. […] TLC was run in buffer, plates dried, cut into sections guided by UV-shadowing and 3H radioactivity was quantified by scintillation counting in Optisafe-3 (Fisher) scintillation cocktail on Perkin Elmer Tricarb 2810TR counter. Conversion of substrate to product was quantified as described in Shyp et al. (2012)2. […]
Screening: all experiments were performed in HEPES:Polymix, Mg2+ of 5 mM, 37 °C. […] Inhibition efficiency (IC50) was calculated using 4-parameter logistic model (Hill equation) as per Sebaugh (2011)3. […]

[1] = system: T2, E. coli σ70-RNAP holoenzyme; test: Multiple round in vitro transcription by σ70-RNAP (rrnB P1 and rna1 promoters); assay type: biochemical, Escherichia coli; conditions: for Effect of DksA addition on RNAP inhibition, rrnB P1 promoter (in words): 2 μM DksA; for Inhibition of RNAP, rrnB P1 promoter (in words): absence of DksA, irrespective of presence or absence of 100 μM ppGpp
T2 construct: purchased Epicentre
Experimental: Next, we tested their effects on RNAP. […] We used multiple round in vitro transcription driven from the rrnB P1, a well-characterized ppGpp/DksA inhibited promoter, as described earlier[49]. The assays were performed in the presence and absence of 2 μM DksA and/or 100 μM ppGpp (Fig. 5a).
Effect of inhibitors on rrnB P1 (−66 to +50) promoter transcription by RNAP. Graphs depicting inhibitor (0, 0.025, 0.05, 0.15, 0.4 and 0.6 mM) titrations performed at 30 °C in T-buffer with 0.5 nM template (σ^70-rrnB P1 promoter (pRLG6214)) and 5 nM σ^70-RNAP, in presence or absence of 100 μM ppGpp and/or 2 μM DksA. Error bars represent standard deviations of linear regression estimates, each experiment was performed at least three times.
Multiple round in vitro transcription assay
The assays were performed as per Bernardo et al. (2006)4 with minor modifications. Reactions were carried out in T-buffer (50 mM Tris-HCl pH 7.5, 100 mM NaCl, 10 mM MgCl2, 1 mM dithiothreitol, 0.1 mM EDTA and 0.275 mg of BSA per ml) at 30°C. Inhibitors were titrated to final concentrations of 0, 0.025, 0.05, 0.15, 0.4 and 0.6 mM. E. coli s 70-RNAP holoenzyme (Epicentre, final concentration 5 nM) and template plasmid DNA containing s70-rrnB P1 promoter, (pRLG6214, final concentration 0.5 nM) was used for all experiments. Before initiation of transcription, E. coli s70-RNAP holoenzyme and T buffer were incubated at 30°C for 5 min. Above mix was added to predispensed mixture of inhibitor and the template plasmid DNA containing s70-rrnB P1 promoter (pRLG6214), incubated for further 20 min to initiate open complex formation. 2.5 µl of a mixture of ATP (ﬁnal concentration 0.5 mM), GTP and CTP (ﬁnal concentration 0.2 mM each), UTP (ﬁnal concentration 0.08 mM) and [a-32P]-UTP (5 µCi at > 3000 Ci/mmol, PerkinElmer) was added to initiate transcription by RNAP. After 7 min, 1 µl heparin (0.125 mg/ml ﬁnal concentration) was added to the reaction mixture to prevent re-initiation and further incubated for 5 min to allow completion of initiated transcripts. Transcription was terminated by addition of formamide loading buffer and samples were electrophoresed on a 7M urea-5% polyacrylamide gel and quantified by phosphorimaging.

SMILES | IC50 (E. coli RelA) [µM] | Effect of DksA addition on RNAP inhibition, rrnB P1 promoter (in words) [1] | Inhibition of RNAP, rrnB P1 promoter (in words) [1] | Inhibition of RNAP, ppGpp-insensitive promoter rna1 (in words) ([1]; presence or absence of 100 μM ppGpp and/or 2 μM DksA (Supplementary Figure 4))
Nc1nc2c(ncn2C2OC(COP(=O)(O)OCP(=O)(O)O)C(OP(=O)(O)OCP(=O)(O)O)C2O)c(=O)[nH]1 (stereo not shown) [DR-4250, Guanosine 3’,5’-di(phosphonomethoxyphosphate)] | 41 ± 7 | pronounced protective effect | more potent inhibitors of RNAP then of RelA | the same behavior
Nc1nc2c(ncn2C2CCN(C(=O)P(=O)(O)O)CC2)c(=O)[nH]1 [DR-M014] | 155 ± 14 | pronounced protective effect | more potent inhibitors of RNAP then of RelA | 
